Legend:
NCI-H1299 cells = assay: Induction of polyploidy in H1299; format: cell-based, Human; conditions: NCI-H1299, 48 hours; for EC15: Homo sapiens, read-out: EC15 (concentration of inhibitor necessary to induce polyploidy in 15% of cells)
Method in brief: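 Potency is given as EC15, the inhibitor concentration giving 15% polyploid cells, from log dose-response least-squares analysis. Polyploid cells (nuclear area >750 μ^2, ≥4N) were counted by Hoechst high-content microscopy. H1299 cells had been exposed for 48 h at 37 C in duplicate, then fixed in 3% formalin.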

KDR = KDR (Homo sapiens, UniProt P35968); assay: KDR cellular assay (KDR receptor phosphorylation ELISA); format: cell-based; parameters: expressed in transfected cells; host or cells: 3T3 (embryonic mouse) cells; conditions: KDR transfected 3T3 (embryonic mouse) cells, VEGF stimulated; read-out: IC50 inhibition of KDR phosphorylation
Method in brief: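 Phospho-KDR measured by capture ELISA (anti-KDR coat, biotinylated detection, streptavidin-HRP, 450 nm) in lysates of KDR-expressing 3T3 mouse fibroblasts. Cells saw compound 20 min at 37° C before 10 min VEGF challenge (100 ng/ml solution); IC50 from non-linear regression of half-log dose series.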

Aurora A = target: T1, Aurora A (Homo sapiens, UniProt O14965); assay: Aurora A enzyme inhibition (time-resolved fluorescence, STK substrate-2); format: biochemical; conditions: 1 mM ATP
T1 sequence (O14965 1-403): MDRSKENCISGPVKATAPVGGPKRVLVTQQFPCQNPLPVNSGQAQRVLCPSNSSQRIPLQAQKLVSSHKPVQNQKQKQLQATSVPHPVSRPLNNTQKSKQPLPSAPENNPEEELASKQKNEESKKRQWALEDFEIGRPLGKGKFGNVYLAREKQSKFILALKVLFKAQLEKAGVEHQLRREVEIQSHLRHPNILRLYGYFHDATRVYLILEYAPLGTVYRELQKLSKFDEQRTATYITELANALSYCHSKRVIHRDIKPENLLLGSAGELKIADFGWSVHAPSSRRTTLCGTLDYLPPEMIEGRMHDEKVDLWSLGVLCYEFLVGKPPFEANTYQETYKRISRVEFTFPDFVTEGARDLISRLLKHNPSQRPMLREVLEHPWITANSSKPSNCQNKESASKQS
Method in brief: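 Phosphorylation of biotinylated STK substrate-2 at 1 mM ATP, 1 h, Hepes buffer pH 7.4 (MgCl2, sodium orthovanadate, Triton X-100). After EDTA quench, 665/615 nm time-resolved fluorescence ratio read via europium anti-phospho antibody and SA-XL665; IC50 from exponential fit versus inhibitor concentration.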

Sequence of KDR (P35968 20-1356): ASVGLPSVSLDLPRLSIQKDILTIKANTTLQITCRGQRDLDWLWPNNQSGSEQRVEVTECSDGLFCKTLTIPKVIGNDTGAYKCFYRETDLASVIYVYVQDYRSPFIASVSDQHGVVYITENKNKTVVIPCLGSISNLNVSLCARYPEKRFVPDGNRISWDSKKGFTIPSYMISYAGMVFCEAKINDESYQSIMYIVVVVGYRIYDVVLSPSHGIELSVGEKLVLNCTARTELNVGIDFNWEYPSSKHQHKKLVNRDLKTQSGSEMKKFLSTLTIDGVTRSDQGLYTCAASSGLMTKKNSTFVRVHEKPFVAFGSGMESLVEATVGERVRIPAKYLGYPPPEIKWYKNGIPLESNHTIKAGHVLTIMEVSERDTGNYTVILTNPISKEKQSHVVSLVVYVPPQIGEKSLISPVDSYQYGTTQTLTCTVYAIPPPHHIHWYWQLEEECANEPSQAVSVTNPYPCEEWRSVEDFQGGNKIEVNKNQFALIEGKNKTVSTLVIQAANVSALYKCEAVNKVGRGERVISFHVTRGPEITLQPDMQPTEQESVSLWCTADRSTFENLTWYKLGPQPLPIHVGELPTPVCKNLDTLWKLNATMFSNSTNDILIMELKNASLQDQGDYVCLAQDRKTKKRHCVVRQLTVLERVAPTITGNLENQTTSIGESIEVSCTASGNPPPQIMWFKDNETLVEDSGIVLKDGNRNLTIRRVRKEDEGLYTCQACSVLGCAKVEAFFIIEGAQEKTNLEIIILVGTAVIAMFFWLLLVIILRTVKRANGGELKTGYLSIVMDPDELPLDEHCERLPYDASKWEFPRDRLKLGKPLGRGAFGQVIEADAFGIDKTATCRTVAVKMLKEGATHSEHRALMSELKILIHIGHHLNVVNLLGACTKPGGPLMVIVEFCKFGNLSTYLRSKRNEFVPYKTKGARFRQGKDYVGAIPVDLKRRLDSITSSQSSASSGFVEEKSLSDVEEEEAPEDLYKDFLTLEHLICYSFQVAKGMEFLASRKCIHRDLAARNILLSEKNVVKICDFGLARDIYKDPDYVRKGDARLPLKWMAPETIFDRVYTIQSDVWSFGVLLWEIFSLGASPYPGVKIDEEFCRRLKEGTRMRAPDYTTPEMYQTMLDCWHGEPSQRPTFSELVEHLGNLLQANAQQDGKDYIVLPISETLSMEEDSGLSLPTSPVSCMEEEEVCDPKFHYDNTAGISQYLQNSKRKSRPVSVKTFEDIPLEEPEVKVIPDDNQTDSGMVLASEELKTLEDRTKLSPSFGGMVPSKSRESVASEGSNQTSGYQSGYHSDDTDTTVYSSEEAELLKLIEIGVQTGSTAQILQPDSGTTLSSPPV

Row | Compound | IC50 (KDR) [nM] | Ki (Aurora A) [nM] | EC15 (NCI-H1299 cells) [nM] | EC15 (concentration of inhibitor necessary to induce polyploidy in 15% of cells) (NCI-H1299 cells)
1 | Cn1cc(Nc2ncc(C(F)(F)F)c(N[C@H]3[C@@H](C(N)=O)C[C@H]4C[C@@H]3C4(C)C)n2)cn1 [Example 167, (1R,2R,3S,5R)-6,6-dimethyl-2-({2-[(1-methyl-1H-pyrazol-4-yl)amino]-5-(trifluoromethyl)pyrimidin-4-yl}amino)bicyclo[3.1.1]heptane-3-carboxamide] | 100 to 1000 | < 100 | < 100 | –
2 | CCn1cc(Nc2ncc(C(F)(F)F)c(N[C@H]3[C@@H](C(N)=O)C[C@H]4C[C@@H]3C4(C)C)n2)cn1 [Example 168, (1R,2R,3S,5R)-2-({2-[(1-ethyl-1H-pyrazol-4-yl)amino]-5-(trifluoromethyl)pyrimidin-4-yl}amino)-6,6-dimethylbicyclo[3.1.1]heptane-3-carboxamide] | 100 to 1000 | < 100 | < 100 | –
3 | Cc1c(Nc2ncc(Cl)c(N[C@H]3[C@@H](C(N)=O)[C@@H]4C=C[C@H]3C4)n2)cnn1C [Example 169, (1S,2S,3R,4R)-3-({5-chloro-2-[(1,5-dimethyl-1H-pyrazol-4-yl)amino]pyrimidin-4-yl}amino)bicyclo[2.2.1]hept-5-ene-2-carboxamide] | < 100 | < 100 | < 100 | –
4 | NC(=O)[C@@H]1[C@H](Nc2nc(Nc3cnn(Cc4ccc(Cl)cc4)c3)ncc2Br)[C@H]2C=C[C@@H]1C2 [Example 172, (1S,2S,3R,4R)-3-[(5-bromo-2-{[1-(4-chlorobenzyl)-1H-pyrazol-4-yl]amino}pyrimidin-4-yl)amino]bicyclo[2.2.1]hept-5-ene-2-carboxamide] | < 100 | < 100 | < 100 | –
5 | NC(=O)[C@@H]1[C@H](Nc2nc(Nc3cnn(-c4ccccc4)c3)ncc2Br)[C@H]2C=C[C@@H]1C2 [Example 173, (1S,2S,3R,4R)-3-({5-bromo-2-[(1-phenyl-1H-pyrazol-4-yl)amino]pyrimidin-4-yl}amino)bicyclo[2.2.1]hept-5-ene-2-carboxamide] | < 100 | < 100 | < 100 | –
6 | (1S,2R)-2-{[5-chloro-2-({1-[2-(morpholin-4-yl)ethyl]-1H-pyrazol-4-yl}amino)pyrimidin-4-yl]amino}cyclopentanecarboxamide and (1R,2S)-2-{[5-chloro-2-({1-[2-(morpholin-4-yl)ethyl]-1H-pyrazol-4-yl}amino)pyrimidin-4-yl]amino}cyclopentanecarboxamide [Example 137] | 100 to 1000 | < 100 | – | B (“B” represents an EC15 of between 0.1 μM and 1 μM)

Continued, in another order:

Row | IC50 (KDR) [nM] | Ki (Aurora A) [nM] | Compound | EC15 (NCI-H1299 cells) [nM] | EC15 (concentration of inhibitor necessary to induce polyploidy in 15% of cells) (NCI-H1299 cells)
7 | < 100 | < 100 | NC(=O)[C@@H]1[C@H](Nc2nc(Nc3cnn(Cc4ccc(Cl)cc4)c3)ncc2Cl)[C@H]2C=C[C@@H]1C2 [Example 162, (1S,2S,3R,4R)-3-[(5-chloro-2-{[1-(4-chlorobenzyl)-1H-pyrazol-4-yl]amino}pyrimidin-4-yl)amino]bicyclo[2.2.1]hept-5-ene-2-carboxamide] | < 100 | –
8 | 100 to 1000 | < 100 | Cn1cc(Nc2ncc(Cl)c(N[C@H]3[C@@H](C(N)=O)C[C@H]4C[C@@H]3C4(C)C)n2)cn1 [Example 165, (1R,2R,3S,5R)-2-({5-chloro-2-[(1-methyl-1H-pyrazol-4-yl)amino]pyrimidin-4-yl}amino)-6,6-dimethylbicyclo[3.1.1]heptane-3-carboxamide] | < 100 | –
9 | < 100 | < 100 | Cc1c(Nc2ncc(Br)c(N[C@H]3[C@@H](C(N)=O)[C@@H]4C=C[C@H]3C4)n2)cnn1C [Example 170, (1S,2S,3R,4R)-3-({5-bromo-2-[(1,5-dimethyl-1H-pyrazol-4-yl)amino]pyrimidin-4-yl}amino)bicyclo[2.2.1]hept-5-ene-2-carboxamide] | < 100 | –
10 | < 100 | < 100 | NC(=O)[C@@H]1[C@H](Nc2nc(Nc3cnn(Cc4ccccc4Cl)c3)ncc2Br)[C@H]2C=C[C@@H]1C2 [Example 171, (1S,2S,3R,4R)-3-[(5-bromo-2-{[1-(2-chlorobenzyl)-1H-pyrazol-4-yl]amino}pyrimidin-4-yl)amino]bicyclo[2.2.1]hept-5-ene-2-carboxamide] | < 100 | –
11 | < 100 | < 100 | NC(=O)[C@@H]1[C@H](Nc2nc(Nc3cnn(-c4ccccc4)c3)ncc2Cl)[C@H]2C=C[C@@H]1C2 [Example 174, (1S,2S,3R,4R)-3-({5-chloro-2-[(1-phenyl-1H-pyrazol-4-yl)amino]pyrimidin-4-yl}amino)bicyclo[2.2.1]hept-5-ene-2-carboxamide] | < 100 | –
12 | < 100 | < 100 | Cc1cccc(Cn2cc(Nc3ncc(Cl)c(N[C@H]4[C@@H](C(N)=O)[C@@H]5C=C[C@H]4C5)n3)cn2)c1 [Example 178, (1S,2S,3R,4R)-3-[(5-chloro-2-{[1-(3-methylbenzyl)-1H-pyrazol-4-yl]amino}pyrimidin-4-yl)amino]bicyclo[2.2.1]hept-5-ene-2-carboxamide] | < 100 | –
13 | < 100 | < 100 | NC(=O)[C@@H]1[C@H](Nc2nc(Nc3cnn(Cc4ccc5ccccc5c4)c3)ncc2Cl)[C@H]2C=C[C@@H]1C2 [Example 179, (1S,2S,3R,4R)-3-[(5-chloro-2-{[1-(2-naphthylmethyl)-1H-pyrazol-4-yl]amino}pyrimidin-4-yl)amino]bicyclo[2.2.1]hept-5-ene-2-carboxamide] | < 100 | –
14 | < 100 | < 100 | COc1ccc(Cn2cc(Nc3ncc(Cl)c(N[C@H]4[C@@H](C(N)=O)[C@@H]5C=C[C@H]4C5)n3)cn2)cc1F [Example 192, (1S,2S,3R,4R)-3-[(5-chloro-2-{[1-(3-fluoro-4-methoxybenzyl)-1H-pyrazol-4-yl]amino}pyrimidin-4-yl)amino]bicyclo[2.2.1]hept-5-ene-2-carboxamide] | < 100 | –

Source: patent US8426408B2, “Pyrimidine inhibitors of kinases” (AbbVie Inc., priority 2009, dated 2013)
